Laboratory results published in patent publication US8614327B2 (Vertex Pharmaceuticals Incorporated, priority 2004, dated 2013).

Target: T1, ΔF508-CFTR (Homo sapiens, UniProt P13569, DEL508-508)
T1 construct: expressed in transfected cells
Assay: Membrane potential optical (FRET/VIPR) assay, identification of potentiator compounds
Type: cell-based
Details: Table 3, assay not given; for % Activity: relative efficacy
Excerpt: I) Membrane Potential Optical Methods for Assaying ΔF508-CFTR Modulation Properties of Compounds The optical membrane potential assay utilized voltage-sensitive FRET sensors described by Gonzalez and Tsien (See, Gonzalez, J. E. and R. Y. Tsien (1995) “Voltage sensing by fluorescence resonance energy transfer in single cells” Biophys J 69(4): 1272-80, and Gonzalez, J. E. and R. Y. Tsien (1997) “Improved indicators of cell membrane potential that use fluorescence resonance energy transfer” Chem Biol 4(4): 269-77) in combination with instrumentation for measuring fluorescence changes such as the Voltage/Ion Probe Reader (VIPR) (See, […]. Oades, et al. (1999) “Cell-based assays and instrumentation for screening ion-channel targets” Drug Discov Today 4(9): 431-439). These voltage sensitive assays are based on the change in fluorescence resonant energy transfer (FRET) between the membrane-soluble, voltage-sensitive dye, DiSBAC2(3), and a fluorescent phospholipid, CC2-DMPE, which is attached to the outer leaflet of the plasma membrane and acts as a FRET donor. Changes in membrane potential (Vm) cause the negatively charged DiSBAC2(3) to redistribute across the plasma membrane and the amount of energy transfer from CC2-DMPE changes accordingly. The changes in fluorescence emission were monitored using VIPR which is an integrated liquid handler and fluorescent detector designed to conduct cell-based screens in 96- or 384-well microtiter plates. To identify potentiators of ΔF508-CFTR, a double-addition HTS assay format was developed. During the first addition, a Cl^--free medium with or without test compound was added to each well. […] (in mM) NaCl 160, KCl 4.5, CaCl2 2, MgCl2 1, HEPES 10, pH 7.4 with NaOH. • Chloride-free bath solution: Chloride salts in Bath Solution #1 are substituted with gluconate salts. • CC2-DMPE: Prepared as a 10 mM stock solution in DMSO and stored at -20° C. • DiSBAC2(3): Prepared as a 10 mM stock in DMSO and stored at -20° C. NIH3T3 mouse fibroblasts stably expressing ΔF508-CFTR are used for optical measurements of membrane potential. […] For all optical assays, the cells were seeded at 30,000/well in 384-well matrigel-coated plates and cultured for 2 hrs at 37° C. before culturing at 27° C. for 24 hrs. for the potentiator assay.

T1 sequence (P13569 with tags, fused parts or gaps DEL508-508): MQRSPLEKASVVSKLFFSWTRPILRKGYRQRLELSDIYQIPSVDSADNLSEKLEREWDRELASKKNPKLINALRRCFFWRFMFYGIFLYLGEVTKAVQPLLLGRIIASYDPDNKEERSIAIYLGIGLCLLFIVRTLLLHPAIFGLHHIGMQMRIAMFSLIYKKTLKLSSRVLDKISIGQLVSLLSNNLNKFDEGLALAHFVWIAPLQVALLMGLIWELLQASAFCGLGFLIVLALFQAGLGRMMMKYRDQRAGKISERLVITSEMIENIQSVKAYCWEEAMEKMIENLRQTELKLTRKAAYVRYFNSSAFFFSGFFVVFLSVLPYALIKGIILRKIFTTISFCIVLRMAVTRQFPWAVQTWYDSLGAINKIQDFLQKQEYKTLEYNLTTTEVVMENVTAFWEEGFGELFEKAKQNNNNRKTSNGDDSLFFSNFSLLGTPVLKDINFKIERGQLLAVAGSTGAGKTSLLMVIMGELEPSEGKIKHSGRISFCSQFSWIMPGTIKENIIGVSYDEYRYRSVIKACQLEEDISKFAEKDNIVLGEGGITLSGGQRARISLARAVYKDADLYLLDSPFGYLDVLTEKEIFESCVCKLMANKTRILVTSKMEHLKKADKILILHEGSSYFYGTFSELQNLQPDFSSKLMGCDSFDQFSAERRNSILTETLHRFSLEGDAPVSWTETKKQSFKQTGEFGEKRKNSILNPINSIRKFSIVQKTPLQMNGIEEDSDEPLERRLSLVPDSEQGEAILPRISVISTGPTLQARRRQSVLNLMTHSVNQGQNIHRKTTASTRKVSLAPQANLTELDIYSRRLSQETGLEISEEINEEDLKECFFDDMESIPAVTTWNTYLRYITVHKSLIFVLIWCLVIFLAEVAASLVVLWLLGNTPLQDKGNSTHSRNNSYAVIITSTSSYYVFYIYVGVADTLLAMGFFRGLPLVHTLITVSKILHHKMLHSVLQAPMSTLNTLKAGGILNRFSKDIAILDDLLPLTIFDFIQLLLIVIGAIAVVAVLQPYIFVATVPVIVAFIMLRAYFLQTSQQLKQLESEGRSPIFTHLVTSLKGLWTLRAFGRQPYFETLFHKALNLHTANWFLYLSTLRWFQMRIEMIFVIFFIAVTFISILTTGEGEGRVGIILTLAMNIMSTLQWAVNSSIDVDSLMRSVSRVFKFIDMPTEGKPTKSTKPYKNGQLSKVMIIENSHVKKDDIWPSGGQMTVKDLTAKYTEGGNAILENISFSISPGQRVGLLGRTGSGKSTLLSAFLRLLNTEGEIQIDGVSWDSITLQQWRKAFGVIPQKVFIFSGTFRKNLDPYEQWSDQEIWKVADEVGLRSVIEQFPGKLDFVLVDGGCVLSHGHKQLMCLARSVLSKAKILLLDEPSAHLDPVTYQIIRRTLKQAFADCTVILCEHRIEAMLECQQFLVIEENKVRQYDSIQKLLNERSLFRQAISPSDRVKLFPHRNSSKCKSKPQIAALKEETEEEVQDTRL

Row | EC50 [µM] | % Activity | Structure (SMILES)
1 | < 10 | ++ (between 25% to 100%) | CC(C)(C)OC(=O)NCCc1c[nH]c2cc(NC(=O)c3c[nH]c4ccccc4c3=O)ccc12 [Compound 352, 2-[6-[(4-oxo-1H-quinolin-3-yl)carbonylamino]-1H-indol-3-yl]ethylaminoformic acid tert-butyl ester]
2 | < 10 | ++ (between 25% to 100%) | O=C(Nc1ccccc1-c1ccccc1F)c1c[nH]c2ccccc2c1=O [Compound 313, N-[2-(2-fluorophenyl)phenyl]-4-oxo-1H-quinoline-3-carboxamide]
3 | < 10 | ++ (between 25% to 100%) | Nc1nc2ccc(NC(=O)c3c[nH]c4ccccc4c3=O)cc2s1 [Compound 671, N-(2-aminobenzothiazol-6-yl)-4-oxo-1H-quinoline-3-carboxamide]
4 | < 10 | ++ (between 25% to 100%) | O=C(Nc1cccnc1Oc1ccccc1F)c1c[nH]c2ccccc2c1=O [Compound 435, N-[2-(2-fluorophenoxy)-3-pyridyl]-4-oxo-1H-quinoline-3-carboxamide]
5 | 25 to 60 | + (<25%) | O=C(Nc1cc2ccccc2cn1)c1c[nH]c2ccccc2c1=O [Compound 309, N-(3-isoquinolyl)-4-oxo-1H-quinoline-3-carboxamide]
6 | < 10 | ++ (between 25% to 100%) | O=C(Nc1ccccc1Oc1ncc(C(F)(F)F)cc1Cl)c1c[nH]c2ccccc2c1=O [Compound 42, N-[2-[[3-chloro-5-(trifluoromethyl)-2-pyridyl]oxy]phenyl]-4-oxo-1H-quinoline-3-carboxamide]
7 | 10 to 25 | ++ (between 25% to 100%) | CS(=O)(=O)c1ccc(-c2ccccc2NC(=O)c2c[nH]c3ccccc3c2=O)cc1 [Compound 326, N-[2-(4-methylsulfonylphenyl)phenyl]-4-oxo-1H-quinoline-3-carboxamide]
8 | < 10 | ++ (between 25% to 100%) | CCOC(=O)NCC(C)(C)c1ccc(NC(=O)c2c[nH]c3ccccc3c2=O)cc1 [Compound 119, [2-methyl-2-[4-[(4-oxo-1H-quinolin-3-yl)carbonylamino]phenyl]-propyl]aminoformic acid ethyl ester]
9 | < 10 | ++ (between 25% to 100%) | O=C(Nc1ccc(OCc2ccccc2)cc1)c1c[nH]c2ccccc2c1=O [Compound 189, N-(4-benzyloxyphenyl)-4-oxo-1H-quinoline-3-carboxamide]
10 | < 10 | ++ (between 25% to 100%) | CCOc1ccccc1-c1cc(C(C)(C)C)c(O)cc1NC(=O)c1c[nH]c2ccccc2c1=O [Compound 23, N-[2-(2-ethoxyphenyl)-5-hydroxy-4-tert-butyl-phenyl]-4-oxo-1H-quinoline-3-carboxamide]
11 | 25 to 60 | + (<25%) | O=C(Nc1cccc2[nH]ccc12)c1c[nH]c2ccccc2c1=O [Compound 100, N-(1H-indol-4-yl)-4-oxo-1H-quinoline-3-carboxamide]
12 | < 10 | ++ (between 25% to 100%) | CC(C)(C)c1cc(F)c(NC(=O)c2c[nH]c3c(C#N)cccc3c2=O)cc1O [Compound 519, 8-cyano-N-(2-fluoro-5-hydroxy-4-tert-butyl-phenyl)-4-oxo-1H-quinoline-3-carboxamide]
13 | < 10 | +++ (>100%) | CC(C)(C)OC(=O)NC1CCCc2ccc(NC(=O)c3c[nH]c4ccccc4c3=O)cc21 (stereo not shown) [Compound 273, [7-[(4-oxo-1H-quinolin-3-yl)carbonylamino]tetralin-1-yl]aminoformic acid tert-butyl ester]
14 | < 10 | ++ (between 25% to 100%) | CC(C)(C)c1c[nH]c2cc(NC(=O)c3c[nH]c4cccc(O)c4c3=O)ccc12 [Compound 535, 5-hydroxy-4-oxo-N-(3-tert-butyl-1H-indol-6-yl)-1H-quinoline-3-carboxamide]
